Results as given in patent US20230050846A1, “TREATMENT OF HEPATIC AND CARDIOVASCULAR DISORDERS” (LIFESEARCH, priority 2019, published 2023).
Peptide text beside a SMILES is read from it. * marks the point of attachment. Palmitoyl = CCCCCCCCCCCCCCCC(=O)*

Columns and labels:
wild-type C57B/L6J mice = assay: Biliary lipid secretions, gallbladder cannulation, wild-type mice; type: in vivo, mouse; settings: for bile flux / biliary secretion of bile acids / biliary secretion of cholesterol: C57BL/6 mice, vs PBS or SCR
Protocol: Wild-type C57B/L6J male mice were purchased from Janvier Labs (Le Genest Saint Isle, France). LDLR knock-out mice (males, C57B/L6J background) were obtained from The Jackson Laboratory (Bar Harbor, Me., USA). Mice were caged in animal rooms under specific pathogen free conditions at the animal facility of Rangueil (Anexplo platform, US006, Toulouse, France) with a light/dark schedule of 12 h/12 h and were fed ad libitum with a normal chow diet (#V1535 R/M-H, Ssniff, Germany). All animal experimental procedures were conducted in accordance with institutional guidelines on animal experimentation approved by the local ethical committee of animal care and are conformed to the guidelines from Directive 2010/63/EU of the European Parliament on the protection of animals used for scientific purposes or the NIH guideline.
Depending of experiments, 8 weeks old mice were intraperitoneally injected with PBS, the peptide of formula (I), the peptide of formula (II) and SCR. Details of peptide use, dose and mode of administration and time course are specified in the description of FIG. 11. Given the short elimination half-life of the peptide of formula (I), osmotic pumps were also used to insure a continuous delivery for 14 days. Briefly, 200 μL osmotic pump were filled with 10 mg/mL of the peptide of formula (I) in PBS and were implanted subcutaneously into the mice according to the manufacturer's instructions (Alzet®, model pump #2002), to insure the peptide of formula (I) release at an estimated rate of 0.5 μL/h, which corresponds to an estimated amount of delivery of 5 mg of the peptide of formula (I) per kilogram of body weight per day (5 mg/kg BW/day). Following treatments, mice were fasted for 2 h and were then anesthetized by intra-peritoneal injection of ketamine and xylazine hydrochloride. The common bile duct was ligated close to the duodenum and the gallbladder was punctured and cannulated with a polyethylene-10 catheter. After 30 min of stabilization, newly secreted bile was collected for 30 min. During bile collection, body temperature was stabilized using a temperature mattress. Bile flow (expressed in μL/min/100 g of body weight) was determined gravimetrically assuming a density of 1 g/mL for bile. At the end of experiment, blood was collected and mice were sacrificed by cervical dislocation.
For bile acid analysis, 1 μL of bile samples was diluted with 99 μL of milliQ water then incubated with the work reagent (6 mg NAD, 0.5 M hydrazine hydrate buffer, 0.05 M Na-pyrophosphate) for 4 min. The mix was then incubated with a start reagent (0.03 M Tris-EDTA; 0.3 U/mL 3-alpha-OH steroid dehydrogenase) and measured for 30 min, under excitation of 340/330 nm and emission of 440/420 nm. For phospholipid analysis, 1 μL of bile samples was diluted with 49 μL of milliQ water then incubated with the work reagent (100 mM MOPS, pH 8; 0.55 mM HVA; 20 mM CaCl; 11 U/mL Phospholipase-D; 1.66 U/mL Peroxidase; 0.1% Triton X-100) for 4 min. The mix was then incubated with a start reagent (1 M MOPS, pH 8, 50 U/mL Choline oxidase) and measured for 67.5 min, under excitation of 340/330 and emission of 440/40. For cholesterol analysis, 1 μL of bile samples was diluted with 29 μL of milliQ water then was incubated with the work reagent (100 mM MOPS, pH 8, 0.25 mM HVA; 0.1% Triton X-100) for 4 min. The mix was then incubated with a start reagent (0.1 M MOPS, pH 8, 0.06 U/mL cholesterol oxidase, 0.15 U/mL cholesterol esterase, 0.45 U/mL Peroxidase, 0.06 mM Taurocholate) and measured for 45 min, under excitation of 340/330 nm and emission of 440/420 nm. Secretion values of bile acids, phospholipids and cholesterol were calculated by multiplying concentration and bile flow values, and expressed as nmol/min/100 g body weight (BW).

LDLR knock-out mice = assay: Biliary lipid secretions, gallbladder cannulation, dyslipidemic LDLR KO mice; type: in vivo, mouse; settings: dyslipidemic LDL KO mice, ip 25 mg/kg, 2 h
Protocol: Wild-type C57B/L6J male mice were purchased from Janvier Labs (Le Genest Saint Isle, France). LDLR knock-out mice (males, C57B/L6J background) were obtained from The Jackson Laboratory (Bar Harbor, Me., USA). Mice were caged in animal rooms under specific pathogen free conditions at the animal facility of Rangueil (Anexplo platform, US006, Toulouse, France) with a light/dark schedule of 12 h/12 h and were fed ad libitum with a normal chow diet (#V1535 R/M-H, Ssniff, Germany). […]
Depending of experiments, 8 weeks old mice were intraperitoneally injected with PBS, the peptide of formula (I), the peptide of formula (II) and SCR. […] Bile flow (expressed in μL/min/100 g of body weight) was determined gravimetrically assuming a density of 1 g/mL for bile. […]
For bile acid analysis, 1 μL of bile samples was diluted with 99 μL of milliQ water then incubated with the work reagent (6 mg NAD, 0.5 M hydrazine hydrate buffer, 0.05 M Na-pyrophosphate) for 4 min. The mix was then incubated with a start reagent (0.03 M Tris-EDTA; 0.3 U/mL 3-alpha-OH steroid dehydrogenase) and measured for 30 min, under excitation of 340/330 nm and emission of 440/420 nm. […] The mix was then incubated with a start reagent (1 M MOPS, pH 8, 50 U/mL Choline oxidase) and measured for 67.5 min, under excitation of 340/330 and emission of 440/40. […]

[1] = continuous delivery (osmotic pump, sc) 14 days, 5 mg/kg BW/day

Q: For `CCCCCCCCCCCCCCCC(=O)NCCCC[C@H](NC(=O)[C@H](CCC(=O)O)NC(=O)[C@H](CCCNC(=N)N)NC(=O)[C@H](CO)NC(=O)[C@H](CCC(N)=O)NC(=O)[C@H](C)NC(=O)[C@H](CCCNC(=N)N)NC(=O)[C@H](Cc1ccccc1)NC(=O)[C@H](Cc1ccc(O)cc1)NC(=O)[C@H](CCCNC(=N)N)NC(=O)[C@H](CCC(=O)O)NC(=O)[C@H](CCC(=O)O)NC(=O)[C@H](CCC(=O)O)NC(=O)[C@H](C)NC(=O)[C@H](CCC(N)=O)NC(=O)[C@H](CCC(=O)O)NC(=O)[C@H](CCCNC(=N)N)NC(=O)[C@H](CCCCN)NC(=O)CNC(=O)[C@H](Cc1ccccc1)NC(=O)[C@H](C)NC(=O)CNC(=O)CNC(=O)[C@H](C)NC(=O)[C@H](CCC(=O)O)NC(=O)[C@H](CCCNC(=N)N)NC(=O)[C@@H](NC(=O)[C@H](CO)NC(=O)CNC(=O)[C@H](C)NC(=O)CNC(=O)[C@H](CCCNC(=N)N)NC(C)=O)[C@@H](C)CC)C(N)=O` [peptide of formula (II), CH3CO-[SEQ ID NO: 1]-K-[palmitoyl]-NH2] (Ac-RGAGSIREAGGAFGKREQAEEERYFRAQSREK(Palmitoyl)-NH2), which bile flux (wild-type C57B/L6J mice; intraperitoneal bolus 25 mg/kg) is on record?
A: stimulated

Q: And the “biliary secretion of bile acids” value (wild-type C57B/L6J mice; intraperitoneal bolus 25 mg/kg)?
A: stimulated

Q: What about the “biliary secretion of cholesterol” value (wild-type C57B/L6J mice; intraperitoneal bolus 25 mg/kg) of the same compound?
A: stimulated

Q: What about the “stimulation of biliary flux and biliary lipid secretion” value (LDLR knock-out mice) of the same compound?
A: maintained

Q: For “Ac-RGAGSIREAGGAFGKREQAEEERYFRAQSRE-NH2 [peptide of formula (I), CH3CO-[SEQ ID NO: 1]-NH2]”, which bile flux (wild-type C57B/L6J mice; intraperitoneal bolus 25 mg/kg) is on record?
A: significant increase

Q: What about the “biliary secretion of bile acids” value (wild-type C57B/L6J mice; intraperitoneal bolus 25 mg/kg) of the same compound?
A: significant increase

Q: And the “biliary secretion of cholesterol” value (wild-type C57B/L6J mice; intraperitoneal bolus 25 mg/kg)?
A: significant increase

Q: What about the “biliary flux and biliary lipid secretion, compared with the 25 mg/kg dose” value (wild-type C57B/L6J mice; bolus injection 12 mg/kg) of the same compound?
A: less efficient

Q: And the biliary cholesterol secretion (wild-type C57B/L6J mice; [1])?
A: stimulated

Q: And the biliary flux (wild-type C57B/L6J mice; [1])?
A: stimulated

Q: What about the “time following injection up to which the effect on bile flux and biliary secretion is maintained” value (wild-type C57B/L6J mice; intraperitoneal bolus 25 mg/kg) of the same compound?
A: up to 4 h

Q: What about the “stimulation of biliary flux and biliary lipid secretion” value (LDLR knock-out mice) of the same compound?
A: maintained
